Laboratory results published in patent US20050026223A1, “Method and compositions for increasing bone mass” (The Board of Trustees of the University of Arkansas, priority 1999, published 2005).

Columns and labels:
[1] = system: HeLa cells transfected with the estrogen receptor α (mERα); assay: Etoposide-induced apoptosis of HeLa cells stably transfected with mERα; format: cell-based, human; conditions: compound 10^−8 M 1 h, etoposide 5×10^−5 M 6 hour
Excerpt: CMV promoter alone and CMV promoter-driven cDNA for mERα or mErβ were stably transfected into HeLa cells. […] Cells were trypsinized, pelleted and trypan blue positive cells enumerated.
(§1) In this experiment, instead of calvaria cells, human HeLa cells which contain undetectable, if any, estrogen receptor were used. HeLa cells were stably transfected with either a CMV promoter-driven cDNA for the murine estrogen receptor-alpha (mERα) or a CMV promoter-driven cDNA for the murine estrogen receptor-beta (mERβ). […] Cells were trypsinized, pelleted and trypan blue positive cells were enumerated.

[2] = system: extracellular signal regulated kinases (ERKs) 1 and 2; assay: Western blot of phosphorylated ERK1/2 in MLO-Y4 osteocytic cells; format: cell-based, murine
Protocol: (§2) MLO-Y4 osteocytic cells were incubated for 25 minutes in serum-free medium. […] Cell lysates were prepared and proteins were separated by electrophoresis in polyacrylamide gels and transferred to PVDF membranes. Western blotting was performed using a specific antibody recognizing phosphorylated ERKs 1 and 2, followed by reblotting with an antibody recognizing total ERKs. Blots were developed by enhanced chemiluminescence.
as §2, with “MLO-Y4” for “MLO-Y4 osteocytic”, “medium in the presence or absence of 50 μM PD98059.” for “medium.”
as §2, with “In this experiment, MLO-Y4” for “MLO-Y4”, “extracellular signal regulated kinases” for “ERKs”, “extracellular signal regulated kinases.” for “ERKs.”, “chemiluminescence. […] This effect is too rapid to be accounted for by the classical mechanism of estrogen action.” for “chemiluminescence.”
as §2, with “In this experiment, MLO-Y4” for “MLO-Y4”, “medium in the presence or absence of 50 μM PD98059.” for “medium.”, “extracellular signal regulated kinases” for “ERKs”, “extracellular signal regulated kinases.” for “ERKs.”

[3] = target: T1, human ERα (Homo sapiens, UniProt P03372); assay: Estrogen response element luciferase reporter in 293 cells overexpressing hERα; format: cell-based; conditions: 3 copies ERE-luciferase
T1 construct: expressed in transfected cells; host or cells: 293 (human embryonic kidney) cells
T1 sequence (P03372 1-595): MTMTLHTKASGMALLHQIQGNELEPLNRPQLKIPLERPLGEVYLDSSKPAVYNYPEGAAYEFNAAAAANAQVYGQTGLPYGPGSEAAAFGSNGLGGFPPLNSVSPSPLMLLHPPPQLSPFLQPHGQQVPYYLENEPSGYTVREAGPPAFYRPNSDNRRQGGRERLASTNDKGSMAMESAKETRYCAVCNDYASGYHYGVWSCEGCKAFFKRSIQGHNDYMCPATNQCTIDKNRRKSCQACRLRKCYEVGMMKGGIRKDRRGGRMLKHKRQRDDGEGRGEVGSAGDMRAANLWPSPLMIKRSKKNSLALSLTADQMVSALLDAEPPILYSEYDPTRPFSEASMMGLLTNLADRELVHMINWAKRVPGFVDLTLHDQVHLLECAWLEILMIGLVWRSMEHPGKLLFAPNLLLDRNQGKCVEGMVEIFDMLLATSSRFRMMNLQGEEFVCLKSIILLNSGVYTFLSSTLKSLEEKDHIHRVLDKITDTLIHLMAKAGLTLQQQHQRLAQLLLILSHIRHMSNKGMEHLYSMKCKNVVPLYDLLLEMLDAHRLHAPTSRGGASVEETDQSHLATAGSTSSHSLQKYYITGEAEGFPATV
Excerpt: The human ERα was overexpressed in 293 cells lacking ERα along with a reporter construct containing 3 copies of an estrogen response element driving the luciferase gene. Light units were counted and normalized to coexpressed b-galactosidase activity to control for differences in transfection efficiency. Results represent percent stimulation compared to ERα transfected cells, but not treated with the two agents. Each bar represents mean of duplicate experiments +/−SEM. *p<0.001 vs. cells not exposed to the sterols.
In this experiment, hERα was overexpressed in 293 cells (which lack constitutive ERα) along with a reporter construct containing 3 copies of an estrogen response element driving the luciferase gene. Light units were counted and normalized to coexpressed β-galactosidase activity to control for differences in transfection efficiency.

[4] = system: wild type HeLa cells; assay: Etoposide-induced apoptosis of wild type HeLa cells; format: cell-based, human; conditions: compound 10^−8 M 1 h, etoposide 5×10^−5 M 6 hour
Excerpt: CMV promoter alone and CMV promoter-driven cDNA for mERα or mErβ were stably transfected into HeLa cells. […] Cells were trypsinized, pelleted and trypan blue positive cells enumerated. Each bar represents mean of duplicate experiments ±SEM. *P<0.02 versus etoposide alone.
as §1

[5] = system: osteoblastic cells derived from murine calvaria; assay: Etoposide-induced apoptosis of osteoblastic cells derived from murine calvaria (trypan blue uptake); format: cell-based
Protocol: Osteoblastic cells derived from murine calvaria were pretreated with the sterols for 1 hour before the addition of the pro-apoptotic agent, etoposide. Apoptosis was determined after 6 hours by trypan blue uptake (Jilka et al, J. Bone and Min. Res. 13:793:802, 1998). * indicates p<0.05 versus etoposide alone, by analysis of variance (ANOVA) (Student-Newman-Keuls method).
Osteoblastic cells derived from murine calvaria were pretreated for 1 hour with the pure receptor antagonist ICI182,780 (10^−7 M) before the addition of the test agents (10^−8 M). Apoptosis was induced and quantified as described in FIG. 3. * indicates p<0.05 versus etoposide alone, by ANOVA (Student-Newman-Keuls method).
In this experiment, osteoblastic cells were derived from murine calvaria and were pretreated with the sterols for 1 hour before the addition of the pro-apoptotic agent, etoposide.
In these experiments, cells were pretreated with the indicated concentrations of the various compounds for 1 hour, in the absence or presence of the androgen receptor antagonist flutamide, before the addition of the proapoptotic agent etoposide. Apoptosis was determined after 6 hours by trypan blue uptake as described in FIG. 3.

## C[C@@]12CCC[C@H]1[C@@H]1CCc3cc(O)ccc3[C@H]1CC2 [estratriene-3-ol]
[1]
  Effect on etoposide-induced apoptosis: potently inhibited
[2]; 10^−8 M, 5, 15 or 30 minutes
  Activation of ERKs (phosphorylated fraction of ERK1/2): activated
[2]; compound 10^−8 M, 5 minutes, 50 μM PD98059
  Ability to activate ERKs in the presence of PD98059: abrogated
[3]
  Transactivation of an estrogen response element through the estrogen receptor α: did not transactivate
[4]
  Effect on etoposide-induced apoptosis: none of the three compounds had any effect
[5]; 1 hour pretreatment before etoposide
  Inhibition of etoposide-induced osteoblast apoptosis: inhibition of etoposide-induced osteoblastic cell apoptosis was demonstrated
[5]; compound 10^−8 M, 1 h pretreatment with ICI182,780 10^−7 M
  Anti-apoptotic effect on osteoblastic cells after ICI182,780: abrogated
